{"source": "patent US20240316019A1", "about": "(Bayer Aktiengesellschaft, priority 2023, published 2024)", "test_system": "patients with acute non-cardioembolic ischemic stroke", "details": "50 mg daily", "protocol": "All participants were required to undergo at least two MRIs that met study requirements. In addition to the baseline MRI (obtained after the index stroke either before randomization or within 72 h after randomization), participants underwent a final study MRI at 26 weeks or as soon as possible after early termination of assigned study treatment. Patients were followed up for at least 26 weeks and up to 52 weeks and assessed for the occurrence of safety, efficacy, and adverse events at 2, 4, 8, 13, 20, 26, 32, 39, 46, and 52 (end of treatment) weeks after randomization, and again 2 weeks after the end of treatment visit. Adherence to assigned therapy was assessed by means of interview and pill count at each clinic visit.\nThe primary safety outcome was the composite of major bleeding and clinically relevant non-major bleeding, according to the criteria of the International Society on Thrombosis and Haemostasis (ISTH). […] Additional prespecified exploratory safety outcomes included haemorrhagic transformation within the qualifying stroke detected by baseline MRI performed post-study drug or on follow-up study MRIs based on the Heidelberg classification of severity (haemorrhagic infarct 1 or 2 or parenchymal haematoma 1 or 2). […]", "data": [{"smiles": "CC[C@@H](C(=O)Nc1ccc(C(N)=O)c(F)c1)n1cc(OC)c(-c2cc(Cl)ccc2-n2cc(C(F)(F)F)nn2)cc1=O", "note": "[Compound A, (4S)-2^4-chloro-4-ethyl-7^3-fluoro-3^5-methoxy-3^2,5-dioxo-14-(trifluoromethyl)-3^2H-6-aza-3(4,1)-pyridina-1(1)-[1,2,3]triazola-2(1,2),7(1)-dibenzenaheptaphane-7^4-carboxamide]", "values": [{"measurement": "Primary intracerebral haemorrhages, % participants", "result": 1, "unit": "%"}, {"measurement": "Primary intracerebral haemorrhages, n participants", "result": "three"}]}]}
